From the supplement of paper PMC5579334

How the values were obtained:
HS-PSS [1] = assay: relative IC50 (inflection point of fitted dose-response curve, CellTox-Green cytotoxicity, 72 h; top asymptote may be below 50%); higher = less potent
Summary of the method: (§1)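 For 72 h at 37 °C, MPNST cell lines and primary human Schwann cells were exposed in 384-well plates to five 10-fold compound dilutions. CellTox-Green, added before seeding at a final 1:1000 dilution, gave fluorescence from DNA released by disrupted cells. Signals were scaled to vehicle and positive-control wells, cultures failing plate quality control were left out, and four-parameter logistic fits were applied. Relative IC50 and drug sensitivity score were derived from the fits, with IC50 censored at the top concentration.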

HSC1 [2] = assay: as above
Summary of the method: as §1

S1507-2 [3] = assay: as above
Summary of the method: as §1

ST8814 [4] = assay: as above
Summary of the method: as §1

STS26T [5] = assay: as above
Summary of the method: as §1

HS-PSS [6] = assay: relative IC50 (inflection point of fitted dose-response curve, CellTiter-Glo viability, 72 h; top asymptote may be below 50% inhibition); higher = less potent
Summary of the method: (§2)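 MPNST cell lines and primary human Schwann cells were seeded at 750–1000 cells per well into 384-well plates preprinted with each compound at five concentrations in 10-fold steps, then incubated 72 h at 37 °C, 5% CO2. CellTiter-Glo ATP luminescence gave viability, scaled between vehicle and positive-control wells, with duplicates averaged where present. Curves were fitted with a four-parameter logistic model. Percent inhibition refers to the top concentration, while drug sensitivity score and relative IC50, censored at the top concentration, come from these fits.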

HS-Sch-2 = assay: as above
Summary of the method: as §2

HSC1 [7] = assay: as above
Summary of the method: as §2

HSC2 [8] = assay: as above
Summary of the method: as §2

S1507-2 [9] = assay: as above
Summary of the method: as §2

YST-1 = assay: as above
Summary of the method: as §2

HSC2 [10] = assay: relative IC50 (inflection point of fitted dose-response curve, CellTox-Green cytotoxicity, 72 h; top asymptote may be below 50%); higher = less potent
Summary of the method: as §1

S462 = assay: relative IC50 (inflection point of fitted dose-response curve, CellTiter-Glo viability, 72 h; top asymptote may be below 50% inhibition); higher = less potent
Summary of the method: as §2

ST8814 [11] = assay: as above
Summary of the method: as §2

STS26T [12] = assay: as above
Summary of the method: as §2

| Structure (SMILES) | relative IC50 (HS-PSS [1]) [µM] | relative IC50 (HSC1 [2]) [µM] | relative IC50 (S1507-2 [3]) [µM] | relative IC50 (ST8814 [4]) [µM] | relative IC50 (STS26T [5]) [µM] | relative IC50 (HS-PSS [6]) [µM] | relative IC50 (HS-Sch-2) [µM] | relative IC50 (HSC1 [7]) [µM] | relative IC50 (HSC2 [8]) [µM] | relative IC50 (S1507-2 [9]) [µM] | relative IC50 (YST-1) [µM] | relative IC50 (HSC2 [10]) [µM] | relative IC50 (S462) [µM] | relative IC50 (ST8814 [11]) [µM] | relative IC50 (STS26T [12]) [µM] |
| --- | --- | --- | --- | --- | --- | --- | --- | --- | --- | --- | --- | --- | --- | --- | --- |
| O=C(Nc1cccnc1)N1CCC(Cc2cccc(Oc3ccc(C(F)(F)F)cn3)c2)CC1 [PF-3845] | > 10 | > 10 | > 10 | > 10 | > 10 | 1.41 | 3.07 | 1.52 | 1.43 | > 10 | 3.52 |  |  |  |  |
| C[C@]12C=CC(=O)C=C1CC[C@@H]1[C@@H]2C(=O)C[C@@]2(C)[C@H]1CC[C@]2(O)C(=O)CO [Prednisone] | > 10 | > 10 | > 10 | > 10 | > 10 | > 10 |  | > 10 | > 10 |  | > 10 | > 10 | > 10 | > 10 | > 10 |
| CCS(=O)(=O)c1cccc(-c2cc(C(=O)NC3CCN(C)CC3)c(C)c3[nH]c4ncc(C)cc4c23)c1 [TAK-901] | > 1 |  | > 1 | 0.134 | 0.0623 | 0.15 | 0.327 | 0.111 | 0.0725 |  | 0.0633 | 0.183 | 0.122 | 0.267 | 0.112 |
| Clc1ccc(Nc2nnc(Cc3ccncc3)c3ccccc23)cc1 [Vatalanib] | > 10 | > 10 | > 10 | > 10 | > 10 |  |  | > 10 |  | > 10 |  | > 10 |  | > 10 | > 10 |
| CCNC(=O)CCC/C=C\C[C@@H]1[C@@H](/C=C/[C@@H](O)CCc2ccccc2)[C@H](O)C[C@@H]1O [Bimatoprost] | > 5.5 | > 5.5 | > 5.5 | > 5.5 | > 5.5 | > 5.5 | > 5.5 | > 5.5 | > 5.5 | > 5.5 | > 5.5 | > 5.5 |  | > 5.5 | > 5.5 |
| Cc1nc(C(=O)NCC(=O)O)c(O)c2ccc(Oc3ccccc3)cc12 [FG-4592] | > 10 | > 10 | > 10 | > 10 | > 10 | 1.21 | 2.47 |  |  | > 10 | > 10 | > 10 | > 10 | > 10 | > 10 |
| N#Cc1ccc(COC[C@H]2O[C@@H](n3c(NCc4ccc(Cl)c(Cl)c4)nc4c(N)ncnc43)[C@H](O)[C@@H]2O)cc1 | > 10 | > 10 | > 10 | > 10 |  |  | > 10 | 0.784 | 0.261 | > 10 | 1.24 | > 10 |  | > 10 | 1.1 |
| CCCCC/C=C/C=C1/C(=O)C=C[C@@H]1C/C=C\CCCC(=O)O [15D-PGJ2] | > 3 | > 0.8 | > 0.8 | > 0.8 | > 0.8 | > 3 |  | > 0.8 | > 0.8 |  | > 3 | > 0.8 | > 0.8 | > 0.8 | > 0.8 |
| O=c1[nH]c(=O)n([C@H]2C[C@H](O)[C@@H](CO)O2)cc1F [Floxuridine] | > 10 | 3.23 | > 10 | 0.729 | 0.253 | 1.48 | 0.173 | 0.752 | 0.127 |  | 0.101 |  | 0.0534 | 0.123 | 0.0379 |
| CC(C)C(=O)Nc1ccc([N+](=O)[O-])c(C(F)(F)F)c1 [Flutamide] | > 10 | > 10 | > 10 | > 10 | > 10 |  | > 10 |  | > 10 | > 10 | > 10 | > 10 | > 10 | > 10 |  |
| CC(C)NC[C@@H](C(=O)N1CCN(c2ncnc3c2[C@H](C)C[C@H]3O)CC1)c1ccc(Cl)cc1 [GDC-0068] |  |  | > 10 | > 10 | > 10 |  |  |  | > 10 | 2.06 |  | > 10 |  |  | 0.544 |
| CS(=O)(=O)c1ccc(C2=C(c3ccccc3)C(=O)OC2)cc1 [Rofecoxib] | > 10 | > 10 | > 10 | > 10 | > 10 | > 10 | > 10 | > 10 | > 10 |  | > 10 | > 10 | > 10 | > 10 | > 10 |
| CC(O)(CS(=O)(=O)c1ccc(F)cc1)C(=O)Nc1ccc(C#N)c(C(F)(F)F)c1 (stereo not drawn) [Bicalutamide] | > 10 | > 10 | > 10 | > 10 | > 10 |  |  |  | > 10 | > 10 | > 10 | > 10 |  | > 10 |  |
| O=C(O)CCCc1ccc(N(CCCl)CCCl)cc1 [Chlorambucil] | > 10 | > 10 | > 10 | > 10 | > 10 | > 10 | > 10 |  |  | > 10 |  | > 10 | > 10 | > 10 | > 10 |
| O=P1(NCCCl)OCCCN1CCCl (stereo not drawn) [Ifosfamide] | > 10 | > 10 | > 10 | > 10 | > 10 | > 10 | > 10 | > 10 | > 10 |  |  | > 10 | > 10 | > 10 | > 10 |
| CCCS(=O)(=O)Nc1ccc(F)c(C(=O)c2c[nH]c3ncc(-c4ccc(Cl)cc4)cc23)c1F [Vemurafenib] | > 10 | > 10 | > 10 |  | 1.17 | 3.73 | 3.92 | 1.74 | 1.46 |  | > 10 | > 10 | > 10 | > 10 | 1.84 |
| COc1cc2c(N3CCN(C(=O)Nc4ccc(OC(C)C)cc4)CC3)ncnc2cc1OCCCN1CCCCC1 [Tandutinib] | > 1 | > 1 | > 1 | > 1 | > 1 |  | > 1 | > 1 | > 1 |  | > 1 | > 1 | > 1 | > 1 | > 1 |
| CC(=O)OC[C@H]1O[C@@H]([S-])[C@H](OC(C)=O)[C@@H](OC(C)=O)[C@@H]1OC(C)=O.CCP(CC)CC.[Au+] [Auranofin] | 0.754 | 0.516 | > 2.5 |  | 0.697 | 0.668 | 0.362 | 0.387 | 0.462 |  | 0.805 | 0.575 | 0.449 | 0.779 | 0.61 |
| N[C@@H](CSC(c1ccccc1)(c1ccccc1)c1ccccc1)C(=O)O [S-trityl-L-cysteine] |  | > 40 | > 40 | > 40 | > 40 |  |  |  | > 40 | > 40 |  | > 40 |  | > 40 |  |
| CC1(C)CCC(c2ccc(Cl)cc2)=C(CN2CCN(c3ccc(C(=O)NS(=O)(=O)c4ccc(N[C@H](CCN5CCOCC5)CSc5ccccc5)c(S(=O)(=O)C(F)(F)F)c4)cc3)CC2)C1 [Navitoclax] | > 10 | 1.54 | 0.608 | 1.5 |  | > 10 | 0.547 |  | 1.12 | 0.582 | 0.471 | 0.983 |  |  |  |
| O=C1CN2Cc3c(ccc(Cl)c3Cl)N=C2N1 [Anagrelide] | > 10 | > 10 | > 10 | > 10 | > 10 | > 10 | 0.144 |  | 0.134 | > 10 | > 10 |  | > 10 |  | > 10 |
| CCn1c(C(=O)N(C2CC2)C2CC2)cc2c3c(ncn3C)c(Nc3cc(C)n(C)n3)nc21 | > 10 | > 10 | > 10 | > 10 | > 10 | > 10 |  | > 10 | > 10 |  | 1.59 | > 10 | > 10 | > 10 | > 10 |
| C#Cc1cccc(Nc2ncnc3cc(OCCOC)c(OCCOC)cc23)c1 [Erlotinib] | > 10 | > 10 | > 10 | > 10 | > 10 | 2.1 | 1.55 | 2.36 | 2.31 |  | 1.47 | > 10 | 2.31 | 3.13 | 2.06 |
| CC[C@H](CO)Nc1nc(NCc2ccccc2)c2ncn(C(C)C)c2n1 [Seliciclib] |  | > 10 | > 10 | > 10 |  | 1.67 |  |  | 3.99 | > 10 | > 10 | > 10 | 3.61 | > 10 |  |
| Oc1ccc2c(c1)CC[C@H](c1ccccc1)[C@@H]2c1ccc(OCCN2CCCC2)cc1 [Lasofoxifene] | > 1 | > 1 | > 1 | > 1 | > 1 |  | > 1 | > 1 | > 1 | > 1 | > 1 | > 1 |  | > 1 | > 1 |
| COC(=O)c1ccc2c(c1)NC(=O)/C2=C(\Nc1ccc(N(C)C(=O)CN2CCN(C)CC2)cc1)c1ccccc1 [Nintedanib] |  | > 10 | > 10 | > 10 | > 10 | 3.97 | 3.71 | > 10 | > 10 |  | 1.12 | > 10 | > 10 | > 10 | > 10 |
| CN[C@@H](C)C(=O)N[C@H]1CN(C(=O)CC(C)C)CC[C@H]2CC[C@@H](C(=O)NC(c3ccccc3)c3ccccc3)N2C1=O [AT-406] | > 10 | > 10 | 0.0583 | > 10 | 0.0199 |  |  | > 10 | > 10 |  | > 10 | > 10 | > 10 | > 10 | 0.0972 |
| CC(C)(C)c1nc(-c2cccc(NS(=O)(=O)c3c(F)cccc3F)c2F)c(-c2ccnc(N)n2)s1 [Dabrafenib] | > 2.5 | > 2.5 | > 2.5 | > 2.5 | > 2.5 | 1 |  | 0.22 | 0.0633 |  |  | > 2.5 | 0.668 | 0.968 | 0.0728 |
| CN(Cc1cnc2nc(N)nc(N)c2n1)c1ccc(C(=O)N[C@@H](CCC(=O)O)C(=O)O)cc1 [Methotrexate] | > 5 | > 5 | > 5 |  | 0.314 | > 5 | 0.0892 | > 5 |  |  | 0.0609 | > 5 | 0.0276 | 0.195 | 0.0149 |
